Experimental data taken from paper PMC6915135, “Simultaneous Quantification of Brigatinib and Brigatinib-Analog in Rat Plasma and Brain Homogenate by LC-MS/MS: Application to Comparative Pharmacokinetic and Brain Distribution Studies” (International Journal of Analytical Chemistry, 2019).

Key:
[1] = Pharmacokinetic study in rats after single oral administration (plasma, LC-MS/MS); assay type: in vivo, male Sprague Dawley rats; conditions: 5 mg/kg single oral, male SD rats, mean ± SD; for Vd (apparent volume of distribution) / AUC(0-t) / Cmax / MRT / Tmax / half-life: n = 6; for AUC(0-t) / Cmax / MRT / Tmax / half-life / CL/F: Sprague Dawley, rat; for CL/F: n = 6, read-out: CL (CLz/F)
Procedure: (§1) Seventy-two male Sprague Dawley rats weighing 180–220 g (7-8 weeks old, Certificate no. SCXK (Shandong) 2014-0007) were supplied by Shandong Laboratory Animal Center, Shandong First Medical University & Shandong Academy of Medical Sciences. All rats were kept in plastic cages with 12 h day/night cycle under controlled temperature (about 23–25°C) and fed with standard laboratory rat diet and water ad libitum. All the animal welfare and experimental procedures were approved by the Animal Ethics Committee at the Institute of Materia Medica, Shandong First Medical University & Shandong Academy of Medical Sciences (Jinan, China) and strictly in accordance with the guide for the care and use of laboratory animals (National Research Council of USA, 1996).
For the pharmacokinetic studies, after fasting with free access to water for at least 12 h, twelve rats were randomly divided into two groups (n = 6). The brigatinib and brigatinib-analog were both dissolved in ethanol-0.5% methylcellulose (1 : 19) for dosing. The two group rats were intragastrically administered with brigatinib and brigatinib-analog at the same dose of 5 mg/kg, respectively.
Blood samples, about 100 μL of each, were placed in heparinized Eppendorf tubes predose and at 5, 15, 30, 60, 120, 180, 240, 300, 360, 480, 720, and 1,440 min postdose from the jugular vein of rats. The blood samples were immediately centrifuged at 3,500 rpm for 15 min at 4°C, and the plasma samples were transferred carefully from each collection and stored at −20°C until analysis.
(§2) Experimental data were expressed as mean ± standard deviation (SD). Drug and Statistics 2.0 (DAS 2.0) software package (Mathematical Pharmacology Professional Committee of China, Shanghai, China) was used for estimating pharmacokinetic and brain distribution parameters by a noncompartmental method. Statistical analyses were performed with statistical software IBM SPSS Statistics 20.0 (IBM Corporation, Armonk, NY, USA). Differences between two groups were evaluated by the t-test. A value of p < 0.05 was considered as statistically significant.

the triple mutation = tested on: the triple mutation; design: method as in PMID 28287083, PMID 27780853; conditions: read-out: IC50 against the triple mutation; cited from earlier work
[2] = Stability of QC samples in rat brain homogenate under various storage conditions; assay type: in vitro ADME; conditions: n = 6
Procedure: (§3) The stability of brigatinib and brigatinib-analog was evaluated by analysis of low and high concentration levels of QC samples under different conditions (n = 6). The temperature and timing conditions were as follows: 6 h at ambient temperature, stored at −20°C for 10 d, three freeze-thaw cycles, and 24 h at 4°C in an autosampler. The measured concentrations were all within acceptable limits (±15% of the nominal concentrations) during the entire validation. […] Carryover was evaluated by determining the peak areas for brigatinib and brigatinib-analog by injecting blank matrix samples sequentially after the highest calibration standard sample injection. Furthermore, no carryover effect was obtained in this study.

[3] = Brain distribution study in rats after single oral administration (brain homogenate, LC-MS/MS); assay type: in vivo, male Sprague Dawley rats; conditions: for blood-brain barrier penetration / Kp: 5 mg/kg oral, rats; for Cmax / MRT / Tmax / half-life / Kp: Sprague Dawley, rat; for Cmax / MRT / Tmax / half-life / AUC(0–t): brain, 5 mg/kg single oral, male SD rats, mean ± SD, n = 6; for Kp: male, average AUC(0–t) brain to plasma, 1 g brain taken as 1 mL plasma, read-out: ratio of AUCbrain/AUCplasma
Procedure: as §1
For the brain distribution studies, the remaining sixty rats were randomly divided into ten groups (n = 6, per group). The distributions of brigatinib and brigatinib-analog in the rat brain were also investigated at the dose of 5 mg/kg after single oral administration to rats. The whole brain was excised immediately at 5, 60, 240, 480, and 1,440 min postdose, thoroughly rinsed with 0.9% saline solution, and wiped with a filter paper. Each brain sample was weighed accurately and homogenized in double distilled water (1 : 5, w/v) by using a tissue homogenizer (IKA, Germany) and frozen at −20°C until analysis.
as §2

[4] = Stability of QC samples in rat plasma under various storage conditions; assay type: in vitro ADME; conditions: for Stability under the storage conditions investigated: rat plasma and brain homogenate QC samples, 6 h ambient, −20°C 10 d, three freeze-thaw cycles, 24 h at 4°C autosampler; for Measured conc. after ambient temperature for 6 h / Measured conc. after autosampler at 4°C for 24 h / Measured conc. after three freeze-thaw cycles / Measured conc. after −20°C for 10 d: rat plasma, n = 6
Procedure: as §3

Structure (SMILES): COc1cc(N2CCC(N3CCN(C)CC3)CC2)ccc1Nc1ncc(Cl)c(Nc2ccccc2P(C)(C)=O)n1 [Brigatinib]
- Vd (apparent volume of distribution) [1]: 5.66 ± 1.94 L/kg
- AUC(0-t) [1]: 4360 ng·h/mL
- Cmax [1]: 538 ± 186 ng/mL
- MRT [1]: 6.73 h
- Tmax [1]: 4.33 h
- half-life [1]: 3.16 ± 0.343 h
- CL/F [1]: 22 ± 10 mL/min/kg
- IC50 (the triple mutation): < 100 nM
- Measured conc. after ambient temperature for 6 h ([2]; spiked 1.0 ng/mL): 1.06 ± 0.08 ng/mL
- Measured conc. after autosampler at 4°C for 24 h ([2]; spiked 1.0 ng/mL): 0.96 ± 0.05 ng/mL
- Measured conc. after three freeze-thaw cycles ([2]; spiked 1.0 ng/mL): 1.02 ± 0.06 ng/mL
- Measured conc. after −20°C for 10 d ([2]; spiked 1.0 ng/mL): 0.97 ± 0.06 ng/mL
- Measured conc. after ambient temperature for 6 h ([2]; spiked 800 ng/mL): 788.85 ± 69.25 ng/mL
- Measured conc. after autosampler at 4°C for 24 h ([2]; spiked 800 ng/mL): 813.16 ± 72.23 ng/mL
- Measured conc. after three freeze-thaw cycles ([2]; spiked 800 ng/mL): 847.44 ± 57.65 ng/mL
- Measured conc. after −20°C for 10 d ([2]; spiked 800 ng/mL): 760.29 ± 48.33 ng/mL
- blood-brain barrier penetration [3]: could both penetrate the blood-brain barrier
- Cmax [3]: 68.9 ± 21.6 ng/g
- MRT [3]: 7.48 h
- Tmax [3]: 5.5 h
- half-life [3]: 5.32 ± 1.95 h
- AUC(0–t) [3]: 58255.81 ± 13725.10 ng·min/g
- Kp [3]: 0.223
- Stability under the storage conditions investigated [4]: stable
- Measured conc. after ambient temperature for 6 h ([4]; spiked 2.0 ng/mL): 2.10 ± 0.12 ng/mL
- Measured conc. after autosampler at 4°C for 24 h ([4]; spiked 2.0 ng/mL): 1.90 ± 0.10 ng/mL
- Measured conc. after three freeze-thaw cycles ([4]; spiked 2.0 ng/mL): 1.94 ± 0.09 ng/mL
- Measured conc. after −20°C for 10 d ([4]; spiked 2.0 ng/mL): 2.05 ± 0.17 ng/mL
- Measured conc. after ambient temperature for 6 h ([4]; spiked 1600 ng/mL): 1585.06 ± 98.31 ng/mL
- Measured conc. after autosampler at 4°C for 24 h ([4]; spiked 1600 ng/mL): 1645.17 ± 118.52 ng/mL
- Measured conc. after three freeze-thaw cycles ([4]; spiked 1600 ng/mL): 1678.34 ± 95.87 ng/mL
- Measured conc. after −20°C for 10 d ([4]; spiked 1600 ng/mL): 1719.73 ± 107.09 ng/mL

Structure (SMILES): COc1cc(N2CCC(N(C)C)CC2)ccc1Nc1ncc(Cl)c(Nc2ccccc2P(C)(C)=O)n1 [Brigatinib-analog]
- Vd (apparent volume of distribution) [1]: 3.43 ± 0.96 L/kg
- AUC(0-t) [1]: 4370 ng·h/mL
- Cmax [1]: 734 ± 83.1 ng/mL
- MRT [1]: 5.48 h
- Tmax [1]: 4.33 h
- half-life [1]: 2.01 ± 0.496 h
- CL/F [1]: 21 ± 6 mL/min/kg
- IC50 (the triple mutation): < 100 nM
- Measured conc. after ambient temperature for 6 h ([2]; spiked 1.0 ng/mL): 1.04 ± 0.05 ng/mL
- Measured conc. after autosampler at 4°C for 24 h ([2]; spiked 1.0 ng/mL): 0.97 ± 0.06 ng/mL
- Measured conc. after three freeze-thaw cycles ([2]; spiked 1.0 ng/mL): 0.98 ± 0.07 ng/mL
- Measured conc. after −20°C for 10 d ([2]; spiked 1.0 ng/mL): 1.07 ± 0.11 ng/mL
- Measured conc. after ambient temperature for 6 h ([2]; spiked 800 ng/mL): 828.64 ± 66.54 ng/mL
- Measured conc. after autosampler at 4°C for 24 h ([2]; spiked 800 ng/mL): 783.28 ± 32.39 ng/mL
- Measured conc. after three freeze-thaw cycles ([2]; spiked 800 ng/mL): 833.68 ± 56.59 ng/mL
- Measured conc. after −20°C for 10 d ([2]; spiked 800 ng/mL): 846.09 ± 53.83 ng/mL
- blood-brain barrier penetration [3]: could both penetrate the blood-brain barrier
- Cmax [3]: 45.8 ± 11.8 ng/g
- MRT [3]: 6.32 h
- Tmax [3]: 4 h
- half-life [3]: 4.27 ± 0.667 h
- AUC(0–t) [3]: 23196.08 ± 4932.95^∗ ng/g·min
- Kp [3]: 0.088
- Stability under the storage conditions investigated [4]: stable
- Measured conc. after ambient temperature for 6 h ([4]; spiked 2.0 ng/mL): 2.03 ± 0.11 ng/mL
- Measured conc. after autosampler at 4°C for 24 h ([4]; spiked 2.0 ng/mL): 1.89 ± 0.12 ng/mL
- Measured conc. after three freeze-thaw cycles ([4]; spiked 2.0 ng/mL): 2.01 ± 0.09 ng/mL
- Measured conc. after −20°C for 10 d ([4]; spiked 2.0 ng/mL): 1.95 ± 0.12 ng/mL
- Measured conc. after ambient temperature for 6 h ([4]; spiked 1600 ng/mL): 1638.54 ± 97.76 ng/mL
- Measured conc. after autosampler at 4°C for 24 h ([4]; spiked 1600 ng/mL): 1582.61 ± 101.88 ng/mL
- Measured conc. after three freeze-thaw cycles ([4]; spiked 1600 ng/mL): 1578.36 ± 125.20 ng/mL
- Measured conc. after −20°C for 10 d ([4]; spiked 1600 ng/mL): 1705.49 ± 109.83 ng/mL
